Source: patent US7214386B2, “Method for the treatment and prevention of overweight in mammals” (priority 2002, dated 2007)

Key:
[1] = Plasma insulin in rats (radioimmunoassay); conditions: rats on high fat diet, after 2½ weeks of treatment versus after 1 week on the high fat diet
[2] = Plasma glucose in rats (oxidase-peroxidase method); conditions: rats on high fat diet, after 2½ weeks of treatment versus after 1 week on the high fat diet
3T3-L1 cells = assay: Effect of dill extract on isoprenaline-stimulated lipolysis (glycerol formation) in differentiated 3T3-L1 cells; format: cell-based; conditions: 24 hours incubation, glycerol formation of sample A divided by that of sample B (isoprenaline alone)
Description: 3T3-L1 cells were grown in T75 flasks. The cells were detached by trypsin incubation (±5 min at 37° C.). After detachment, 4 ml lipolysis standard medium was added to the flask (DMEM; 10% fetal calf serum; 4.5 g/l D-glucose; 100 U/ml penicillin; 100 μg/ml streptomycin) and the cells were suspended therein. The cell suspension was then diluted in lipolysis standard medium to 50000 cells/ml (5000 cells/100 μl), and 100 μl of this diluted cell mix was transferred to a precoated well in a 96 wells plate. […] Thereafter the solution was removed). After incubation for 48 hours at 37° C., the medium was refreshed (removal of old medium and addition of 100 μl lipolysis standard medium) and the cells incubated at 37° C. After 72 hours, the supernatant was removed and 100 μl differentiation medium (5 μg/ml bovine insuline; 0.25 μM dexamethasone; 0.5 mM IBMX; in standard medium) was added. […] After 24 hours incubation at 37° C., the glycerol concentration in the supernatant was determined using a glycerol assay (Sigma Cat.no. 337) against a standard curve of glycerol in lipolysis standard medium. The relative lipolysis inhibiting activity of the dill extract was calculated by dividing the glycerol formation of sample A of interest by the glycerol formation of sample B.

Row | SMILES | plasma insulin levels (FIG. 3) [1] | plasma glucose levels (FIG. 3) [2] | Relative lipolysis inhibiting effect (3T3-L1 cells)
1 | Cn1c(=O)c2c(ncn2C)n(C)c1=O [caffeine] | no reduction | significant reduction | –
2 | CC(C)NCC(O)c1ccc(O)c(O)c1 (stereo not drawn) [isoprenaline] | – | – | 1
